The results in this text go back to patent US9255094B2, “Pyrido[4,3-B]indoles and methods of use” (Medivation Technologies, Inc., priority 2009, dated 2016).

For assay [1], the target named is T1, human recombinant serotonin (5-Hydroxytryptamine) 5-HT2A receptor (Homo sapiens, UniProt P28223).
T1 construct: expressed in transfected cells; host or cells: Chinese hamster ovary (CHO-K1) cells
As to the kind of experiment: Serotonin 5-HT2A radioligand binding assay ([3H]Ketanserin). To be noted: 0.5 nM [3H]Ketanserin, CHO-K1 cells; for inhibition at 0.1 µM: compound at 0.1 μM, read-out: Percent Inhibition of ligand binding, Serotonin (0.1 μM) 5-HT2A; for inhibition at 1 µM: compound at 1 μM, read-out: Percent Inhibition of ligand binding, Serotonin (1 μM) 5-HT2A. The procedure:
Compounds of the invention were incubated with 0.5 nM [^3H]Ketanserin for 60 min at 25° C. Non-specific binding was estimated in the presence of 1 μM Mianserin. Receptor proteins were filtered and washed, the filters were then counted to determine [^3H]Ketanserin specifically bound. Compounds were screened at 1 μM or lower, using 1% DMSO as vehicle. Biochemical assay results are presented as the percent inhibition of specific binding in Table 4.

Assay [2] addresses T2, human recombinant serotonin (5-Hydroxytryptamine) 5-HT2C receptor (Homo sapiens, UniProt P28335).
T2 construct: expressed in transfected cells; host or cells: Chinese hamster ovary (CHO-K1) cells
T2 sequence (P28335 33-458): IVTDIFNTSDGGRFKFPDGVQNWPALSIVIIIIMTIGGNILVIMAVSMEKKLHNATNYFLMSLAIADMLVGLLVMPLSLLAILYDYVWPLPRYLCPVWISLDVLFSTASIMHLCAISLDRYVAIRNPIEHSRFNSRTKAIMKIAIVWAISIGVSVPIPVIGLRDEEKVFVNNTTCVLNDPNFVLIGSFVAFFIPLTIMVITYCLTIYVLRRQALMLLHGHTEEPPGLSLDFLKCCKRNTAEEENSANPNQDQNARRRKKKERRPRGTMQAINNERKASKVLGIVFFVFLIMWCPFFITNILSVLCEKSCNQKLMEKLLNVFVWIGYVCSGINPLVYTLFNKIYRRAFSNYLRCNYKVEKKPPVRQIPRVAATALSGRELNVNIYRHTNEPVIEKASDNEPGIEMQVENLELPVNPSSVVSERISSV
The assay is described as follows: Serotonin 5-HT2C radioligand binding assay ([3H]Mesulergine). To be noted: compound at 0.1 μM; 1 nM [3H]Mesulergine; CHO-K1 cells; read-out: Percent Inhibition of ligand binding, Serotonin (0.1 μM) 5-HT2C. The procedure:
Compounds of the invention were incubated with 1 nM [^3H]Mesulergine for 60 min at 25° C. Non-specific binding was estimated in the presence of 1 μM Mianserin. Receptor proteins were filtered and washed, the filters were then counted to determine [^3H]Mesulergine specifically bound. Compounds were screened at 1 μM or lower, using 1% DMSO as vehicle. Biochemical assay results are presented as the percent inhibition of specific binding in Table 4.

The target of assay [3] is T3, human recombinant serotonin (5-Hydroxytryptamine) 5-HT6 receptor (Homo sapiens, UniProt P50406).
T3 construct: expressed in transfected cells; host or cells: human HeLa cells
T3 sequence (P50406 whole entry): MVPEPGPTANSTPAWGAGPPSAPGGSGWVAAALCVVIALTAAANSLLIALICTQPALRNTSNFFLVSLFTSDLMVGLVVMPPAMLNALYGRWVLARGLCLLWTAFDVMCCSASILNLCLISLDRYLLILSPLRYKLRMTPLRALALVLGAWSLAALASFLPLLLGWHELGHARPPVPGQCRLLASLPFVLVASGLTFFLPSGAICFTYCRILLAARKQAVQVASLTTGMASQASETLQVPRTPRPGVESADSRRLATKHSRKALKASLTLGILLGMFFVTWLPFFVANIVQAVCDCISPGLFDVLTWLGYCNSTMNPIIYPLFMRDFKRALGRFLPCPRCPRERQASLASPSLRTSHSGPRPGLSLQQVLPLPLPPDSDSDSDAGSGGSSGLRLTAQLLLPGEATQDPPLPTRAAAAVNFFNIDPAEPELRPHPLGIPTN
The assay is described as follows: Serotonin 5-HT6 radioligand binding assay ([3H]LSD). The note with it: compound at 0.1 μM, HeLa cells, read-out: Percent Inhibition of ligand binding, Serotonin (0.1 μM) 5-HT6. How it is done:
Compounds of the invention were incubated with 1.5 nM [3H]Lysergic acid diethylamide (LSD) for 120 min at 37° C. […] Receptor proteins were filtered and washed, the filters were then counted to determine [3H]LSD specifically bound. Compounds were screened at 1 μM or lower, using 1% DMSO as vehicle. Biochemical assay results are presented as the percent inhibition of specific binding in Table 4.

In assay [4] the target is human recombinant serotonin (5-Hydroxytryptamine) 5-HT7 receptor (Homo sapiens, UniProt P34969). As to the kind of experiment: Serotonin 5-HT7 radioligand binding assay ([3H]LSD). The note with it: compound at 0.1 μM; 5.5 nM [3H]LSD; CHO cells; read-out: Percent Inhibition of ligand binding, Serotonin (0.1 μM) 5-HT7. How it is done: Compounds of invention were incubated with 5.5 nM [^3H] Lysergic acid diethylamide (LSD) for 2 h at 25° C. […] Receptor proteins were filtered and washed, the filters were then counted to determine [^3H]LSD specifically bound. Compounds were screened at 1 μM or lower, using 1% DMSO as vehicle. Biochemical assay results are presented as the percent inhibition of specific binding in Table 4.
Sequence of human recombinant serotonin (5-Hydroxytryptamine) 5-HT7 receptor (P34969 whole entry): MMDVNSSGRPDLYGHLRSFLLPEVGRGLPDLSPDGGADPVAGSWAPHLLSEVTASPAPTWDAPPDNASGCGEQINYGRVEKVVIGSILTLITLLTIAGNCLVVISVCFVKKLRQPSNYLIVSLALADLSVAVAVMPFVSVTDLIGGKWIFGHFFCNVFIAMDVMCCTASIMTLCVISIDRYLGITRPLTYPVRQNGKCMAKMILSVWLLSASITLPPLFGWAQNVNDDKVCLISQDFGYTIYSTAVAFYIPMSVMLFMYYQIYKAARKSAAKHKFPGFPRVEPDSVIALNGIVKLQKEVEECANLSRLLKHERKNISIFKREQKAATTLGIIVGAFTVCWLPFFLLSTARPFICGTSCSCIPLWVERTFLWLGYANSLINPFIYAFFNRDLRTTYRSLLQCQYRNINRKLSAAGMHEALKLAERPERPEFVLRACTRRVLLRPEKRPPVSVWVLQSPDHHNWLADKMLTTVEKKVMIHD

Assay [5] deals with human recombinant histamine H1 receptor (Homo sapiens, UniProt P35367). As to the kind of experiment: Histamine H1 radioligand binding assay ([3H]Pyrilamine). To be noted: compound at 1 μM, receptor expressed in CHO cells. How it is done:
To evaluate in radioligand binding assays the activity of compounds of the invention, human recombinant histamine H1 receptor expressed in Chinese hamster ovary (CHO) cells (De Backer, M. D. et al., Biochem. Biophys. Res. Comm. 197(3):1601, 1993) in a modified Tris-HCl buffer (50 mM Tris-HCl, pH 7.4, 2 mM MgCl2, 100 mM NaCl, 250 mM Sucrose) was used. Compounds of the invention were incubated with 1.2 nM [^3H]Pyrilamine for 180 min at 25° C. Non-specific binding was estimated in the presence of 1 μM pyrilamine Receptor proteins were filtered and washed, the filters were then counted to determine [^3H]Pyrilamine specifically bound. Compounds were screened at 1 μM or lower, using 1% DMSO as vehicle. Biochemical assay results are presented as the percent inhibition of specific binding in Table 2.

Assay [6] concerns the target human recombinant dopamine D2L receptor (Homo sapiens, UniProt P14416). As to the kind of experiment: Dopamine D2L radioligand binding assay ([3H]Spiperone). The note with it: compound at 1 μM, 0.16 nM [3H]Spiperone, CHO cells, read-out: Percent Inhibition of ligand binding, Dopamine (1μM). The procedure: Compounds of the invention were incubated with 0.16 nM [^3H]Spiperone for 120 min at 25° C. Non-specific binding was estimated in the presence of 10 μM Haloperidol. Receptor proteins were filtered and washed, the filters were then counted to determine [^3H]Spiperone specifically bound. Compounds were screened at 1 μM or lower, using 1% DMSO as vehicle. Biochemical assay results are presented as the percent inhibition of specific binding in Table 3.

Each structure is given as a SMILES string.

Sequence of human recombinant histamine H1 receptor (P35367 whole entry): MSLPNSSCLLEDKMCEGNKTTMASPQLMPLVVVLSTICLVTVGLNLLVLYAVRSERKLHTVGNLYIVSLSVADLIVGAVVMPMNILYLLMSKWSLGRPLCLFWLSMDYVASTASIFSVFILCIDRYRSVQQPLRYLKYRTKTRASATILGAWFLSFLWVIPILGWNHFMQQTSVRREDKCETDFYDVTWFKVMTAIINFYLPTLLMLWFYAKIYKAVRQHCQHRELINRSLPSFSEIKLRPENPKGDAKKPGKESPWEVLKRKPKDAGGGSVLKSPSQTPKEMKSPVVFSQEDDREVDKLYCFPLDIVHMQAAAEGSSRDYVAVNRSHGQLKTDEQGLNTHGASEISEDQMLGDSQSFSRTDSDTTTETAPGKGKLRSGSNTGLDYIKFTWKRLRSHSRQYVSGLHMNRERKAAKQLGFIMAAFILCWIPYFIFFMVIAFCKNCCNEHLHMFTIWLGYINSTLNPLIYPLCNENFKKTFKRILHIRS
T1 sequence (P28223 whole entry): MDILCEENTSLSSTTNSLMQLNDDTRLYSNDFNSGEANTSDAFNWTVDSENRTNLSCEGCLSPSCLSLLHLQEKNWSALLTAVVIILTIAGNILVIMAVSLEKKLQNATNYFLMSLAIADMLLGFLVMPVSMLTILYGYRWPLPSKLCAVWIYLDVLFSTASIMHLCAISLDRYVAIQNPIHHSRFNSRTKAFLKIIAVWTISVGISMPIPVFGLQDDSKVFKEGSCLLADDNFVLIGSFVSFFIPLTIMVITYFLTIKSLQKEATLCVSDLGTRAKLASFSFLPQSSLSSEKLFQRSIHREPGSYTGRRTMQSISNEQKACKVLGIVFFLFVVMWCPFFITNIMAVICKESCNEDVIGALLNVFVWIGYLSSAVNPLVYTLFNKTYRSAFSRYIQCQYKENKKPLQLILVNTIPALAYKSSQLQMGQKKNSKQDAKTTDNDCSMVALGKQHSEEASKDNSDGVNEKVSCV
Sequence of human recombinant dopamine D2L receptor (P14416 whole entry): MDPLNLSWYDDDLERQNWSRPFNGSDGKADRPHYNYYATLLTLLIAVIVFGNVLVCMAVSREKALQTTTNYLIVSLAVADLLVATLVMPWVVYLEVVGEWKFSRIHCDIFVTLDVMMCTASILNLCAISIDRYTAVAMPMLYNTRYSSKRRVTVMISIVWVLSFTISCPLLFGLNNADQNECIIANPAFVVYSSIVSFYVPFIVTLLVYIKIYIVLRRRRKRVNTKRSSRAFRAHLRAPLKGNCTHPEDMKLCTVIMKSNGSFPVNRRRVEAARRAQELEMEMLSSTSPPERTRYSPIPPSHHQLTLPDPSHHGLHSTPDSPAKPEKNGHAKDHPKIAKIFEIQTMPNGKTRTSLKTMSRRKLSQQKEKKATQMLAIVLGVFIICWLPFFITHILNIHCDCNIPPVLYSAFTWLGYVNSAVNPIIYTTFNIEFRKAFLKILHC

The inhibition is the relative decrease from the control value, in per cent. On to `Cc1ccc2c(c1)c1c(n2CC(C)(O)c2ccncc2)CCN(CC(F)(F)F)C1` (stereo not drawn) [Compound 1-29, 1-(8-methyl-2-(2,2,2-trifluoroethyl)-3,4-dihydro-1H-pyrido[4,3-b]indol-5(2H)-yl)-2-(pyridin-4-yl)propan-2-ol], for which the inhibition at 0.1 µM is 11% in assay [1], 3% in assay [2], 2% in assay [3] and 2% in assay [4].
Consider `Cc1ccc2c(c1)c1c(n2CC(C)c2ccc(C)nc2)CC(C)N(C)C1` (stereo not drawn) [Compound 1-47, 2,3,8-trimethyl-5-(2-(6-methylpyridin-3-yl)propyl)-2,3,4,5-tetrahydro-1H-pyrido[4,3-b]indole], for which the inhibition at 1 µM worked out at 91% in assay [5] and 12% in assay [6]. Moreover, the inhibition at 0.1 µM stood at 46% in assay [1], 70% in assay [2], 19% in assay [3] and 85% in assay [4].
As to `Cc1ccc2c(c1)c1c(n2CCc2ccc(C(F)(F)F)nc2)CC(C)N(C)C1` (stereo not drawn) [Compound 1-45, 2,3,8-trimethyl-5-(2-(6-(trifluoromethyl)pyridin-3-yl)ethyl)-2,3,4,5-tetrahydro-1H-pyrido[4,3-b]indole], the inhibition at 1 µM in assay [5] came to 96%; in assay [6], 0%. In addition, the inhibition at 0.1 µM was found to be 51% in assay [1], 50% in assay [2], 18% in assay [3] and 78% in assay [4].
For the compound `Cc1ccc2c(c1)c1c(n2CCc2ccc(C(F)(F)F)nc2)C(C)CN(C)C1` (stereo not drawn) [Compound 1-51, 2,4,8-trimethyl-5-(2-(6-(trifluoromethyl)pyridin-3-yl)ethyl)-2,3,4,5-tetrahydro-1H-pyrido[4,3-b]indole], the results for the inhibition at 1 µM in assay [5] and in assay [6] were 65% and 14%, respectively. In addition, the inhibition at 0.1 µM was 77% in assay [1], 92% in assay [2], 4% in assay [3] and 15% in assay [4].
On to `CCC(O)(Cn1c2c(c3cc(C)ccc31)CN(C)CC2)c1ccncc1` (stereo not drawn) [Compound 1-24, 1-(2,8-dimethyl-3,4-dihydro-1H-pyrido[4,3-b]indol-5(2H)-yl)-2-(pyridin-4-yl)butan-2-ol], for which, in assay [6], the inhibition at 1 µM was determined as 9%. The inhibition at 0.1 µM in assay [1] is 36%; in assay [2], 8%; in assay [3], 10%; in assay [4] it was 12%.
`Cc1ccc2c(c1)c1c(n2CC(C)(O)c2ccncc2)CCN(C2CC2)C1` (stereo not drawn) [Compound 1-30, 1-(2-cyclopropyl-8-methyl-3,4-dihydro-1H-pyrido[4,3-b]indol-5(2H)-yl)-2-(pyridin-4-yl)propan-2-ol]: the inhibition at 0.1 µM in assay [1] is 14%; in assay [2], 4%; in assay [3] it was 1%; in assay [4] it was 6%.
For `COc1cccc2c3c(n(CC(C)(O)c4ccncc4)c12)CCN(C)C3` (stereo not drawn) [Compound 1-31, 1-(6-methoxy-2-methyl-3,4-dihydro-1H-pyrido[4,3-b]indol-5(2H)-yl)-2-(pyridin-4-yl)propan-2-ol], in that order: 8%, 5%, -7% and -1%.
Take `Cc1ccc2c(c1)c1c(n2CC(O)(c2ccc(F)cc2)C2CCCCC2)CCN(C)C1` (stereo not drawn) [Compound 1-1, 1-cyclohexyl-2-(2,8-dimethyl-3,4-dihydro-1H-pyrido[4,3-b]indol-5(2H)-yl)-1-(4-fluorophenyl)ethanol]: the inhibition at 1 µM in assay [5] was found to be 22%; in assay [6], 13%; in assay [1], 97%. For the same compound, the inhibition at 0.1 µM in assay [1] amounted to 60%.
Turning to `Cc1ccc2c(c1)c1c(n2CCc2ccc(C)nc2)CC(C)N(C)C1` (stereo not drawn) [Compound 1-44, 2,3,8-trimethyl-5-(2-(6-methylpyridin-3-yl)ethyl)-2,3,4,5-tetrahydro-1H-pyrido[4,3-b]indole], the values for the inhibition at 1 µM in assay [5] and in assay [6] were 100% and 8%, respectively. Moreover, the inhibition at 0.1 µM was 16% in assay [1], 45% in assay [2], 46% in assay [3] and 74% in assay [4].
For `Cc1ccc2c(c1)c1c(n2CC(C)(O)c2ccncc2)CC(C)N(C)C1` (stereo not drawn) [Compound 1-33, 2-(pyridin-4-yl)-1-(2,3,8-trimethyl-3,4-dihydro-1H-pyrido[4,3-b]indol-5(2H)-yl)propan-2-ol], the inhibition at 0.1 µM in assay [1] is 43%; in assay [2], 56%; in assay [3], -1%; in assay [4] it was 40%.
Take `CN1CCc2c(c3cc(Cl)ccc3n2CC(C)(O)c2ccncn2)C1` (stereo not drawn) [Compound 1-26, 1-(8-chloro-2-methyl-3,4-dihydro-1H-pyrido[4,3-b]indol-5(2H)-yl)-2-(pyrimidin-4-yl)propan-2-ol]: the inhibition at 0.1 µM in assay [1] amounted to 23%.
Consider `CC(C)c1ccc2c3c(n(CC(C)(O)c4ccncc4)c2c1)CCN(C)C3` (stereo not drawn) [Compound 1-32, 1-(7-isopropyl-2-methyl-3,4-dihydro-1H-pyrido[4,3-b]indol-5(2H)-yl)-2-(pyridin-4-yl)propan-2-ol], for which the inhibition at 0.1 µM in assay [1] is -6%; in assay [2] it was -6%; in assay [3], -1%; in assay [4], 31%.
Turning to `Cc1ccc2c(c1)c1c(n2CC(O)(c2ccncc2)C(C)C)CCN(C)C1` (stereo not drawn) [Compound 1-22, 1-(2,8-dimethyl-3,4-dihydro-1H-pyrido[4,3-b]indol-5(2H)-yl)-3-methyl-2-(pyridin-4-yl)butan-2-ol], the inhibition at 0.1 µM in assay [1] was found to be 71%.
The same measure, in the same setting: then `Cc1ccc2c(c1)c1c(n2CC(C)(O)c2cnccn2)CCN(C)C1` (stereo not drawn) [Compound 1-28, 1-(2,8-dimethyl-3,4-dihydro-1H-pyrido[4,3-b]indol-5(2H)-yl)-2-(pyrazin-2-yl)propan-2-ol], with 30%.
Turning to `COc1ccc(C(C)(O)Cn2c3c(c4cc(Cl)ccc42)CN(C)CC3)cc1F` (stereo not drawn) [Compound 1-59, 1-(8-chloro-1,2,3,4-tetrahydro-2-methylpyrido[4,3-b]indol-5-yl)-2-(3-fluoro-4-methoxyphenyl)propan-2-ol], the inhibition at 1 µM in assay [1] stood at 96%.
